This is an account of results in US20220265626A1, “THE SERPINB3 INHIBITOR PIPERIDINPROPIONIC ACID FOR TUMOR TREATMENT” (UNIVERSITA' DEGLI STUDI DI PADOVA, priority 2019, published 2022).

Series [1] deals with HepG2/SB3 and HepG2/CTR cells. Nature of the series: Cell viability by MTT assay with antitumor drugs in the absence or presence of PPA. It counts as cell-based. To be noted: for Resistance/sensitivity to drug-induced cell death, HepG2/SB3 compared with HepG2/CTR: drug 10 μM, without PPA. The procedure: The SeprinB3 molecule is known to induce resistance to chemotherapy treatment. In order to evaluate whether the inhibition of said molecule is able to increase the therapeutic efficacy of antitumor drugs, HepG2 cells stably transfected to overexpress SerpinB3 (HepG2/SB3) and HepG2 cells transfected with only the empty plasmid (HepG2/CTR) have been incubated with several antitumor drugs at a concentration of 10 μM (Cisplatin, Sorafenib, 5-Fluorouracil, Methotrexate) in the absence or presence of PPA. […] The results are expressed as a percentage of viability compared to cells incubated with only medium (CTR).
On the technique in general: Formazan colour is commonly taken as a measure of viable cells.

Series [2] concerns HepG2 liver tumor derived cells (HB8065). Put plainly: Real-time cell proliferation / cellular toxicity (xCELLigence, Normalized Cell Index). Format: cell-based. To be noted: monitored for over 60 hours. The procedure: HepG2 liver tumor derived cells (HB8065), incubated with increasing concentrations of 1′-Piperidin propionic acid (PPA) in a range of 5 -50 μg/ml were used and real-time cell proliferation was analysed, using xCELLigence instrument (ACEA Biosciences, Inc., San Diego, Calif., USA), according to the supplier's instructions. In each well of an E-16 plate, 4×10^4 HepG2 cells (HB8065) were seeded in quadruplicate, cultured in complete MEM medium (Sigma-Aldrich, Milan, Italy) supplemented with 10% fetal calf serum (Sigma-Aldrich, Milan, Italy), 100 U/mL of penicillin, 100 μg/ml of streptomycin, and 20 mM L-glutamine (Sigma-Aldrich, Milan, Italy) and 1% of MEM Non Essential Amino Acids. The cells were kept in an incubator at 37° C. with 95% humidity and 5% CO2 saturation. The complete medium was used as a control. The RTCA system monitored the electrical impedance, which is directly proportional to the number of cells present per well, indicated as Cell Index every 5 min for over 60 hours. The cell proliferation curves were analysed with the RTCA software and expressed as the Normalized Cell Index at the time of the treatment with PPA, an arbitrary unit corresponding to the number of cells present per well.
It should be noted that said concentration (5 μg/ml) is markedly higher than the biologically active PPA concentrations, whose normal range of use was 10-100 ng/ml.

The subject of a further series is MDR1 and MDR2 genes. Nature of the series: Multidrug resistance gene expression by real time PCR. As to conditions: HepG2/SB3 cells, PPA 10 and 100 ng/ml, 24 hours. It counts as cell-based. The procedure:
In order to understand more fully whether the resistance to chemotherapeutic drugs induced by SerpinB3 is exclusively linked to the increased resistance to cell death following the reduced activation of the mitochondrial proapoptotic cascade, the genes involved in multiple resistance to chemotherapeutic drugs have been analysed (multidrug resistance, MDR). In particular, HepG2/SB3 and HepG2 control cells (HepG2/empty) were collected after 24 hours of treatment with PPA at the doses of 10 ng/ml and 100 ng/ml and the gene expression was analysed as follows: MDR 1, MDR 2, MRP1, MRP2, MRP3, GSTP1 by real time PCR according to standard protocols.
(In general: Real-time PCR tracks product formation cycle by cycle.)

The test system of a further series is CCL15 and PD-L1. Nature of the series: Expression of SerpinB3-induced cytokines in THP-1 cells. It counts as cell-based. To be noted: PPA 1 ng/ml. The source says:
It has been documented that SerpinB3, in addition to inducing resistance to cell death and increased proliferation, is able to induce a reduction in tumor immunosurveillance, in particular through the increased production of cytokines such as CCL15, recently involved in the reduction of immune surveillance in hepatocellular carcinoma, and the immune checkpoint molecule PD-L1, towards which several new antitumor drugs are directed.

Series [3] concerns tumor development in the liver. Put plainly: DEN plus CDAA diet mouse model of obesity-associated carcinogenesis. It counts as in vivo. An excerpt:
To better assess the role of SerpinB3 in carcinogenesis, a mouse model of obesity-associated carcinogenesis that requires a single administration of diethyl-nitrosamine (DEN) has been developed in mice with different expression of SerpinB3. The study has been performed in mice transgenic for human SerpinB3 (SerpinB3/TG) (the initial colony was kindly provided by Prof. Cassani, Tecnogen, Caserta, Italy) and in SerpinB3 knockout mice (SerpinB3/KO) (the initial colony was kindly provided by Dr. Gary Silverman and Dr. Cliff J. Luke, University of Pittsburg, Children's Hospital, Pittsburg, Pa.). Moreover wild type mice of similar age were used as controls. All animals were bred and maintained with free access to pellet food and water at the Animal Care Facility of the Experimental Surgery Division of the University of Padua.
Mice were injected with (DEN, 25 mg/kg i.p.) at the age of 2 weeks. These mice were fed at the age of 6 weeks with a choline-deficient L-amino acid-defined (CDAA) diet and part of them were sacrificed after […], while the remaining mice were sacrificed after […]. Two groups of control mice were also treated or not with PPA (weekely intraperitoneal injection of 50 ng/g of body weight) during CDAA diet. The experimental protocol was approved by the local Ethical Committee and by the Italian Ministry of Health (Authorization N. 442/2018-PR).

Series [4] has as its system THP-1 cells of monocytic origin. Put plainly: Real-time proliferation of THP-1 cells stimulated with exogenous SerpinB3 (xCELLigence). Format: cell-based. To be noted: THP-1 cells with exogenous SerpinB3 20 ng/ml, PPA 1 ng/ml, 10 ng/ml, 10 μg/ml, up to 120 hours. The procedure:
To evaluate cell proliferation in real time, the xCELLigence instrument (ACEA Biosciences, Inc., San Diego, Calif., USA) was used, as described in Example 1. THP-1 cells of monocytic origin were used, whose incubation with exogenous recombinant SerpinB3 (20 ng/ml) had induced a marked increase in the synthesis of endogenous SerpinB3, as reported in Example 2. A suspension of […] cells in quadruplicate was seeded in each well of an E-16 plate, cultured in complete RPMI medium (Sigma-Aldrich, Milan, Italy). The cells incubated with SerpinB3 alone or in the presence of PPA (1 ng/ml-10ng/ml-10 μg/ml) were monitored for up to 120 hours by the xCELLigence instrument and the cell proliferation curves shown in FIG. 3 were processed and expressed by the RTCA software as the Normalized Cell Index.

For a further series, the system named is SerpinB3. Nature of the series: SerpinB3 mRNA expression by real-time PCR (induced by exogenous SerpinB3 in THP-1 and HT29; constitutive in OE33 and HepG2/SB3). It counts as cell-based. The procedure: PPA was added in culture at a concentration of 1-100 ng/ml alone or in combination with recombinant SerpinB3 (SB3) at a concentration of 20-200 ng/ml to the cells, while only culture medium was added to the control wells. After 24 hours of treatment, the cells were collected by scraper and the extraction of total cell RNA and reverse transcription were performed according to standard protocols. SerpinB3 mRNA levels were measured by real-time PCR (sense: 5′-[…]-3′ (SEQ ID NO:1); reverse 5′-[…]-3′ (SEQ ID NO:2)).
They were seeded in 6-well plates and kept for 24 hours before treatment, each in its own complete culture medium in (Sigma-Aldrich, Milan, Italy). PPA (1′-piperidin propionic acid) was then added at a concentration of 10-100 ng/ml in PBS.
It should be noted that concentrations of 1-10 ng/ml are already able to reduce the synthesis of SerpinB3 by about 50%.

For the molecule `O=c1[nH]cc(F)c(=O)[nH]1` [5-Fluorouracil, reference compound], in series [1], the “Resistance/sensitivity to drug-induced cell death, HepG2/SB3 compared with HepG2/CTR” value (shortened to “Resistance/sensitivity … compared with HepG2/CTR”) is “not different”.
Take `N.N.[Cl][Pt][Cl]` [Cisplatin, reference compound]: in series [1], the “Resistance/sensitivity … compared with HepG2/CTR” value is “greater resistance to cell death”.
As to `CN(Cc1cnc2nc(N)nc(N)c2n1)c1ccc(C(=O)N[C@@H](CCC(=O)O)C(=O)O)cc1` [Methotrexate, reference compound], the “Resistance/sensitivity … compared with HepG2/CTR” value in series [1] was “not different”.
Turning to `O=C(O)CCN1CCCCC1` [PPA, 3-(1-piperidinyl)propanoic acid], the “PPA concentration up to which no cellular toxicity is observed” value in series [2] (PPA 5-50 μg/ml) is given as “up to 5 μg/ml”. Also, the “PPA doses at which cellular toxicity is highlighted (curves below the control curve)” value in series [2] lay within 25 to 50 µg/mL. For the same molecule, in the series on MDR1 and MDR2 genes, the MDR1 gene expression entry is on record as “reduction of their expression in a dose-dependent manner” and the MRD2 gene expression result is reported as “reduction of their expression in a dose-dependent manner”. The “Viability of cells with high levels of SerpinB3 treated with 5-Fluorouracil, on addition of PPA” value in series [1] (HepG2/SB3, 5-Fluorouracil 10 μM) is recorded as “significant reduction of viability”. The “Viability of cells with high levels of SerpinB3 treated with Cisplatin, on addition of PPA” value in series [1] (HepG2/SB3, Cisplatin 10 μM) is given as “significant reduction of viability”. In series [1] (HepG2/SB3, Methotrexate 10 μM), the “Viability of cells with high levels of SerpinB3 treated with Methotrexate, on addition of PPA” value is recorded as “did not change”. For the same molecule, the “Viability of cells with high levels of SerpinB3 treated with Sorafenib, on addition of PPA” value in series [1] (HepG2/SB3, Sorafenib 10 μM) was “significant reduction of viability”. Further, in the series on CCL15 and PD-L1, the “CCL15 level after stimulation with exogenous SerpinB3” value is “markedly reduced” and the “PD-L1 level after stimulation with exogenous SerpinB3” value is “markedly reduced”. Besides, the “Tumor formation compared with mice that did not receive the compound” value in series [3] (control (wild type) mice, DEN 25 mg/kg i.p. then CDAA diet, PPA weekly i.p. 50 ng/g body weight, preliminary results) is recorded as “remarkable reduction of tumor formation”. Also, the “Tolerability in the experimental model” value in series [3] (experimental model) is listed as “well tolerated”. Also, the “Proliferative activity (Normalized Cell Index)” value in series [4] is given as “reduction of the proliferative activity which has proved to be dose-dependent”. The “Constitutive SerpinB3 expression” value in the series on SerpinB3 (OE33 and HepG2/SB3 cells, PPA 10-100 ng/ml) is on record as “reduces in a dose-dependent manner”. The “Reduction of the synthesis of SerpinB3” value in the series with SerpinB3 (PPA concentrations of 1-10 ng/ml) is “about 50%”. Moreover, the “SerpinB3 expression induced by exogenous treatment” value in the series with SerpinB3 (THP-1 and HT29 cells, PPA 1-100 ng/ml with recombinant SerpinB3 20-200 ng/ml, 24 hours) is “reduces in a dose-dependent manner”.
Regarding `CNC(=O)c1cc(Oc2ccc(NC(=O)Nc3ccc(Cl)c(C(F)(F)F)c3)cc2)ccn1` [Sorafenib, reference compound], in series [1], the “Resistance/sensitivity … compared with HepG2/CTR” value is “greater resistance to cell death”.
